Measurements published in ChEMBL document CHEMBL3988442, “University of Dundee, Small-Polar-MMV Screening Library” (2021).
Several values for one entry are separate records, joined by “and”; a condition that tells them apart may be missing. Equal entries are not always repeated.

How the values were obtained:
[1] = To identify inhibition of the IFN signalling (Jak-Stat) pathway via expression of an eGFP reporter gene under the control of an IFN-stimulated response element (ISRE) containing MxA promoter.; assay type: functional, Homo sapiens
[2] = biological target: AMP-activated protein kinase, AMPK; test: AMP-dependent Kinase enzyme assay. An in vitro enzyme assay that detects ADP turnover that is directly proportional to AMPK activity. This uses naive AMPK that is activated during the assay with MK-8722; assay type: functional, Homo sapiens
[3] = biological target: Polyketide synthase Pks13 (Mycobacterium tuberculosis (strain ATCC 25618 / H37Rv), UniProt I6X8D2); test: Mycobacterium tuberculosis Polyketide synthase 13 Thioesterase (PKS13); assay type: functional
Chain of Polyketide synthase Pks13 (I6X8D2 whole entry): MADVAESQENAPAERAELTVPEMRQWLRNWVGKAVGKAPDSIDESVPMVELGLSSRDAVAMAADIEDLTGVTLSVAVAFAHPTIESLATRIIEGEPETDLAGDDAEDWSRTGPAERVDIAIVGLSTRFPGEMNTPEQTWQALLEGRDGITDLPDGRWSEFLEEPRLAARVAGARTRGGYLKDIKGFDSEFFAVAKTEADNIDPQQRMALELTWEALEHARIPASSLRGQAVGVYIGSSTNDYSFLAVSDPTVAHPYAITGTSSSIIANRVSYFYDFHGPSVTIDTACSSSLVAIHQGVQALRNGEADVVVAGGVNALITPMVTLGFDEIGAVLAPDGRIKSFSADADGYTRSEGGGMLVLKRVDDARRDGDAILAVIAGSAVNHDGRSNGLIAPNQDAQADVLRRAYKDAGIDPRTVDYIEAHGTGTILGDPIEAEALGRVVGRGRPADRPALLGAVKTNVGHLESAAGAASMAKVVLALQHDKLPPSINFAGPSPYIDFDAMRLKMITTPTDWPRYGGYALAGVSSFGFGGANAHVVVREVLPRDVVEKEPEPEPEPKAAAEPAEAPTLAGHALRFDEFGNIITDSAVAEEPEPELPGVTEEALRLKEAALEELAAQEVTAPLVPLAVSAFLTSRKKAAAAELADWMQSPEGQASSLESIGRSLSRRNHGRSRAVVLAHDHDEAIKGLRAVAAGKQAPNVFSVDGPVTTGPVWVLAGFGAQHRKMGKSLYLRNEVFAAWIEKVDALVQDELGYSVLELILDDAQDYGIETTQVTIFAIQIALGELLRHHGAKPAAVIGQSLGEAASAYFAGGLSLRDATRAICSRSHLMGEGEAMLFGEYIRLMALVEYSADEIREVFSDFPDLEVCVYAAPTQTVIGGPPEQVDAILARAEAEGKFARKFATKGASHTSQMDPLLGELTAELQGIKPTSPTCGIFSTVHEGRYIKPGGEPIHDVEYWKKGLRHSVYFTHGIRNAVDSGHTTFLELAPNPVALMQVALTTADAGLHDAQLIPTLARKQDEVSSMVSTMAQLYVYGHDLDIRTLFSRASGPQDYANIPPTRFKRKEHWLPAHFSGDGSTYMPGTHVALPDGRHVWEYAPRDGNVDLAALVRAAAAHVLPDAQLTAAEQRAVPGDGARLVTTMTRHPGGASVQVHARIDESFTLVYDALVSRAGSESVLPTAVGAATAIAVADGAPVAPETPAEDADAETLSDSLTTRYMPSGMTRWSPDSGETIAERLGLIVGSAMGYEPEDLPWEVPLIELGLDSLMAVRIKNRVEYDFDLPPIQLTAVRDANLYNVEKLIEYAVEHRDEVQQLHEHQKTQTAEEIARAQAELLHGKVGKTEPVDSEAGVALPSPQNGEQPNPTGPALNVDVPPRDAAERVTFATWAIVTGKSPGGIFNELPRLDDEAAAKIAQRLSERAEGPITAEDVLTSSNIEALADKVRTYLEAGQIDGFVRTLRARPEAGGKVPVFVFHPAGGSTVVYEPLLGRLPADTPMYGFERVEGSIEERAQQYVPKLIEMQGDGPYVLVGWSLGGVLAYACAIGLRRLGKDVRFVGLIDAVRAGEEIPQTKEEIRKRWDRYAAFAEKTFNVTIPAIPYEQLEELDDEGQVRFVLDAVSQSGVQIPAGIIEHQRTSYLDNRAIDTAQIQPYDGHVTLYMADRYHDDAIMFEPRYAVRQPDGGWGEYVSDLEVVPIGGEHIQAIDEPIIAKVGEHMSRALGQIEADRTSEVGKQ

[4] = biological target: Lysine--tRNA ligase (Plasmodium falciparum (isolate 3D7), UniProt Q8IDJ8); test: Pf-KRS-1 (Lysyl-RNA Synthetase-1, KRS-1, cytosolic KRS) from Plasmodium falciparum. Inhibitor assay, 384 well plate, luminescence read.; assay type: functional
Chain of Lysine--tRNA ligase (Q8IDJ8 whole entry): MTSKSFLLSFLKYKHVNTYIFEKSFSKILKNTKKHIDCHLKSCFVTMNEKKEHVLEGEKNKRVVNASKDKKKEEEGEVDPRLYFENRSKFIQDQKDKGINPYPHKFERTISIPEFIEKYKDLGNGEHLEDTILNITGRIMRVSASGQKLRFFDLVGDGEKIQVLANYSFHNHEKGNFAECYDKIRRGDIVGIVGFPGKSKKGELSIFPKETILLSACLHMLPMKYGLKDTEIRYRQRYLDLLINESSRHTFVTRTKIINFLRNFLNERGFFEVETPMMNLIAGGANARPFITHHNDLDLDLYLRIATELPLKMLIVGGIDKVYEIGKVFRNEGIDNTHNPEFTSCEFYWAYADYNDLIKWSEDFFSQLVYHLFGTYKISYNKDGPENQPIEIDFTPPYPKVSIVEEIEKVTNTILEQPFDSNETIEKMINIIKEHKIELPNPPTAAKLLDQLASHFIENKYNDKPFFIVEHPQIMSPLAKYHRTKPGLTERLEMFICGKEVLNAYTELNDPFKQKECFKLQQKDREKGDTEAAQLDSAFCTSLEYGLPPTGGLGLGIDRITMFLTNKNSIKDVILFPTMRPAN

[5] = biological target: T1, Histidine--tRNA ligase (Trypanosoma cruzi (strain CL Brener), UniProt Q4DA54); test: Trypanosoma cruzi histidyl tRNA synthetase (Tc-HisRS); assay type: functional
T1 sequence (Q4DA54 whole entry): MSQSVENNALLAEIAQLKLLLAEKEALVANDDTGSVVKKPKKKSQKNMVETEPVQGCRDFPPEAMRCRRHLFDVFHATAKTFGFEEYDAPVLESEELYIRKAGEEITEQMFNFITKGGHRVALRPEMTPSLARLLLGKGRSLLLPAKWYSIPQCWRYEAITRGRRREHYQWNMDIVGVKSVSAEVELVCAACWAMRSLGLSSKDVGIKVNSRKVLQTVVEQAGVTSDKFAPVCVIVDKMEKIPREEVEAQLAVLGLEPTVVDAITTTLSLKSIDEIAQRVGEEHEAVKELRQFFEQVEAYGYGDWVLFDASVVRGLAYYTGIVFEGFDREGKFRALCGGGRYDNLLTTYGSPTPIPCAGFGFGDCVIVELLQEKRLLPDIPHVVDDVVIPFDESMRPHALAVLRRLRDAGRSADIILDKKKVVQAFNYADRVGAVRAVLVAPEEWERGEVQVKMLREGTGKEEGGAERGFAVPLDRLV

[6] = biological target: T2, Histidine--tRNA ligase (Leishmania infantum, UniProt A4I591); test: Leishmania infantum Histidine tRNA synthetase (LdHisRS); assay type: functional
T2 sequence (A4I591 whole entry): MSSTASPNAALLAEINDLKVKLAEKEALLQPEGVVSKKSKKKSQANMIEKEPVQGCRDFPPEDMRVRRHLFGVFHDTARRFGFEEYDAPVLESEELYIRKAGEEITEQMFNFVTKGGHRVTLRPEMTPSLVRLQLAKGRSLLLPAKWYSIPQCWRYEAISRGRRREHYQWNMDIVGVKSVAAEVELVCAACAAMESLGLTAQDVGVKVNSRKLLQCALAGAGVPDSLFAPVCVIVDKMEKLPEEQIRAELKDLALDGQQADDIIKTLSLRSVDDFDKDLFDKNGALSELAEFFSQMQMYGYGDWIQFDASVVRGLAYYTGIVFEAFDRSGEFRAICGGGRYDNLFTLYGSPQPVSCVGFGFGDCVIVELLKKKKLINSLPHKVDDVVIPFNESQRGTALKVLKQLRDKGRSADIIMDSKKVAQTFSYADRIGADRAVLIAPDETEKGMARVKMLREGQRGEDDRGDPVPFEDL

[7] = biological target: T3, Coenzyme A biosynthesis bifunctional protein CoaBC (Mycobacterium tuberculosis (strain ATCC 25618 / H37Rv), UniProt P9WNZ1); test: Biomol Green assay for MtCoaBC inhibitor, OD650 read; assay type: functional
T3 sequence (P9WNZ1 whole entry): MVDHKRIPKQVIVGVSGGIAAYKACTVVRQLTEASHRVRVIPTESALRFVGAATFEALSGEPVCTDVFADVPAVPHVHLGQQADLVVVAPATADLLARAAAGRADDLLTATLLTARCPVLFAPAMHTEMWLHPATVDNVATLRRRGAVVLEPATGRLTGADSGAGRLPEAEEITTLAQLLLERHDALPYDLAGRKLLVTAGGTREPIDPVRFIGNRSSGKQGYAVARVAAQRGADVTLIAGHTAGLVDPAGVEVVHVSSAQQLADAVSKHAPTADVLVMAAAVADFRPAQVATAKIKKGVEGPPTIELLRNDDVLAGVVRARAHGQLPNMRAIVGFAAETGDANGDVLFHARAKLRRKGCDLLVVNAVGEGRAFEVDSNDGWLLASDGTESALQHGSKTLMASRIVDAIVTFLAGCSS

[8] = system: Leishmania donovani; test: Leishmania intramacrophage assay; assay type: functional, organism-based; settings: for IC50: Leishmania donovani
[9] = system: Trypanosoma brucei; test: Trypanosoma brucei 72 hour study; assay type: functional, organism-based
[10] = system: Plasmodium falciparum; test: Calibr Malaria Delayed Death Assay SOP; assay type: functional, organism-based
[11] = biological target: T4, Ubiquitin-activating enzyme e1, putative (Leishmania donovani (strain BPK282A1), UniProt E9BSI1); test: Leishmania donovani Ubiquitin Activating Enzyme (LdE1); assay type: functional
T4 sequence (E9BSI1 whole entry): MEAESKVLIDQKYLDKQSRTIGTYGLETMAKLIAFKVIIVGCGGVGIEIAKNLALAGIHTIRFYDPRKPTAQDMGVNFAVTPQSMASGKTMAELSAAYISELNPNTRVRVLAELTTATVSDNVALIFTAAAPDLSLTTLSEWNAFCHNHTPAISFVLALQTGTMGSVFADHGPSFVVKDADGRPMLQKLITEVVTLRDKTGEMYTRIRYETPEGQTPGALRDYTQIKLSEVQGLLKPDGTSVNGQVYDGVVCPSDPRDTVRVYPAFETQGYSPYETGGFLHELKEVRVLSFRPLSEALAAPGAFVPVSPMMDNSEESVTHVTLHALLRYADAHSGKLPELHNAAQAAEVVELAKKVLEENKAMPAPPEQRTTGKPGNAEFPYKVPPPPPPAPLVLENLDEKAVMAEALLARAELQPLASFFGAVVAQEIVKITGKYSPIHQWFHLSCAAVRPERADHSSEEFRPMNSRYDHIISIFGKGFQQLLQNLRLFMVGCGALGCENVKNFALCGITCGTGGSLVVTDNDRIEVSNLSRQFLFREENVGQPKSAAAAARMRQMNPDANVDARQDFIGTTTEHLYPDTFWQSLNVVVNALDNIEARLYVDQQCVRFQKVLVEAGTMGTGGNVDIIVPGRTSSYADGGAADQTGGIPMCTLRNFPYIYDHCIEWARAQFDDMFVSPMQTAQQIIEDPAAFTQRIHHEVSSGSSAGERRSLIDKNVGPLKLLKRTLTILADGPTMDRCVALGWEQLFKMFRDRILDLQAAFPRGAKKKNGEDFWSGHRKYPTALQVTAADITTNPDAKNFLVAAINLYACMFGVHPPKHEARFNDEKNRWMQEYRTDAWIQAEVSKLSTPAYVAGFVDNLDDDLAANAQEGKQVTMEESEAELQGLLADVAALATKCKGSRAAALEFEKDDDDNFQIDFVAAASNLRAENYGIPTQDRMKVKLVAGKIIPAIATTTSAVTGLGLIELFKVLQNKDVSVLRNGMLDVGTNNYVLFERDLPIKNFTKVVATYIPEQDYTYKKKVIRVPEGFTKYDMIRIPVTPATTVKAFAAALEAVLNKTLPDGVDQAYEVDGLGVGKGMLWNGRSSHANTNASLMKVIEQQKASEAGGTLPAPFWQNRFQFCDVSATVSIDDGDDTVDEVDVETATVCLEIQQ

SMILES	pIC50 [1]	also measured
Cc1nc(CCNC(=O)NCc2ccc(N(C)C)nc2)cs1	< 4.21	
CCS(=O)(=O)N1CCc2ccc(NC(=O)Nc3cccc(SC)c3)cc21	5.726 [middle of 4 runs]	
CCS(=O)(=O)N1CCCc2ccc(NC(=O)Cc3ccc(F)cc3)cc21	4.555 and 4.597	
CC(C)c1nnc2ccc(N3CCC(C(=O)Nc4nccs4)CC3)nn12	5 and 4.933	
CC1(C)Cc2ccccc2-c2nc(NCCO)[nH]c(=O)c21		pIC50 [2]: 4.722 and 4.636 and 4.548 and 4.621; IC50 [3]: 16.8 µM and 19.4 µM
COCC1c2c(cnn2CC2CC2)CCN1Cc1ccc(OC)cc1 (stereo not drawn)	5.287 and 5.465	
O=C(NCc1ccccc1)c1nnc2ccc(N3CCOCC3)cc2n1		pIC50 [2]: < 4; IC50 [3]: 16 µM and 24.5 µM
Cc1cc(-c2cnc(NCc3cccnc3)nc2C(C)C)on1	4.396 and 4.538	
Cc1ccc(S(=O)(=O)N2C[C@H]3C[C@H](NC(=O)c4ccnn4C)[C@H]3C2)cc1	5.601 and 5.47 and 5.597 and 5.592	
CC(C)C1CCCN1C(=O)Nc1ccc(=O)n(C)c1 (stereo not drawn)		IC50 [4]: > 50.1 µM; pIC50 [2]: < 4; IC50 [5]: 19 µM and 22.3 µM; IC50 [6]: 1.01 µM and 1.02 µM and 2.81 µM and 2.75 µM
CS(=O)(=O)c1ccc(NC(=O)N2CCc3sccc3C2)cn1	4.408 and 4.389	
CN(C)c1ccc(CCCNC(=O)Nc2ccc(C#N)cc2)cc1	4.654 and 4.645	
CCc1nc(CN2CCN(c3ncnc4cc(F)ccc34)CC2)no1	5.76 [middle of 4 runs]	
Cc1n[nH]cc1CNc1ccc2c(c1)CN(C(=O)OC(C)(C)C)CC2	4.816 and 4.848	
COc1ccc(-c2nnc(SC(C)C(=O)NC3CC3)[nH]2)c(OC)c1 (stereo not drawn)	4.665 and 4.584	
CC(=O)c1c(F)cccc1N1CCC(Cc2cccnc2)CC1	5.268 and 5.138	
c1cnn(CC2CN(c3ncnc4ccsc34)CCO2)c1 (stereo not drawn)	4.809 and 4.868	
Nc1nccc(-c2c[nH]nc2C2CCCCC2)n1	4.943 and 4.951	
Cc1nc(N)nc(C)c1CC(=O)N1CCC2(CC1)OCCCC2O (stereo not drawn)		IC50 [7]: > 30.2 µM; pIC50 [2]: < 4
CC(C)(O)C1CCN(C(=O)Nc2nc(-c3ccccc3)ns2)CC1	4.605 and 4.639	
CC(=O)c1ccc(N2CCCC(CO)(CCOc3ccccc3)C2)nc1 (stereo not drawn)	4.524 and 4.702	
CCn1c(C2CCCN(Cc3nccn3CCOC)C2)nn(C)c1=O (stereo not drawn)	< 4.21	
CC(=O)N1C[C@@H](c2ccsc2)[C@@H]2CN(Cc3cccc(Cl)c3)CC[C@@H]21	4.483 and 4.43	
Cc1ccc(CC(=O)Nc2cc(C(C)C)n[nH]2)cn1		pIC50 [8]: 4.917; IC50 [8]: 11.7 µM; pIC50 [2]: < 4; pIC50 [9]: 4.869 and 4.956; IC50 ([9]; Trypanosoma brucei, 72 h): 12.7 µM
Cc1ccnc(NC(=O)c2[nH]nc(C(C)C)c2Br)c1		IC50 [7]: > 30.2 µM; pIC50 [2]: < 4; pIC50 [10]: 6.433; IC50 ([10]; Plasmodium falciparum): 0.23 µM

SMILES	pIC50 [1]	also measured
CC(C)c1n[nH]c(C(=O)NC(C)c2ccncc2)c1Br (stereo not drawn)		IC50 [7]: > 30.2 µM; pIC50 [2]: < 4
Cc1cccc(NC(=O)c2[nH]nc(C(C)C)c2Br)n1		pIC50 [2]: < 4; IC50 [3]: > 100 µM
Cc1ccc(C(=O)Nc2cc(C(C)C)n[nH]2)cn1	4.606 and 4.922	
Clc1ccc2cccnc2c1CN1CCCC1Cn1cncn1 (stereo not drawn)	4.696 and 4.448	
COc1ccc(C)cc1CN1CCCC1c1noc(C2CC2)n1 (stereo not drawn)	4.543 and 4.502	
c1cnn(CC2CCCN2c2ncnc3sccc23)c1 (stereo not drawn)	5.137 and 5.086	
Cc1cc(CN2CCCC2c2noc(C3CC3)n2)c2ccccc2n1 (stereo not drawn)	5.12 and 5.038	
O=C1NCCN1C1CCCN(Cc2coc(-c3ccc(F)cc3)n2)C1 (stereo not drawn)	4.93 and 4.918	
COC(=O)c1ccc(S(=O)(=O)NCc2cccnc2N(C)C)cc1	4.637 and 5.104	
CC(C)N(CC(N)=O)Cc1csc(COc2ccc(F)cc2)n1	5.121 and 5.081	
CCn1ncc2c1CCCC2NCc1cc(Cl)c(OC)c(OC)c1 (stereo not drawn)	4.746 and 4.672	
COc1cc(/C=C/c2ncc(C(=O)O)s2)cc(Cl)c1O		IC50 [7]: > 50.1 µM and > 30.2 µM (2×) and 45.3 µM; pIC50 [2]: 4.507 and 4.461; IC50 [3]: 23.7 µM and 18.7 µM
Cc1nc(C)n(CC2CCCN(c3ncnc4sccc34)C2)n1 (stereo not drawn)	5.597 and 5.199	
Cc1nc(C)n(CC2CCCN(c3ncnc4c3CCC4)C2)n1 (stereo not drawn)	5.177 and 5.243	
O=C(Cc1noc2ccccc12)N1CCCC1c1noc(C2CC2)n1 (stereo not drawn)	4.845 and 4.787	
CC(C)c1nc2n(n1)CC(NCc1nnc(C(C)C)o1)CC2 (stereo not drawn)		IC50 [11]: > 100 µM; pIC50 [2]: < 4
Cc1cc(-c2cnc(N3CCCC(C)C3)nc2-c2cccnc2C)on1.Cl (stereo not drawn)	4.421 and 4.521	
CC(C)(C)C(=O)N1C[C@H](c2ccsc2)[C@H]2CN(Cc3cccs3)CC[C@H]21.Cl	4.58 and 4.539	
CCc1ccc(CN2C[C@@H]3OCCN(c4ccnc(N(C)C)n4)[C@@H]3C2)o1.O=C(O)C(F)(F)F	5.071 and 5.204	
CN(Cc1ccco1)[C@@H]1CN(C(=O)c2ccnnc2)[C@@H]2CCCO[C@H]12.O=C(O)C(F)(F)F	< 4.21	
O=C(O)C(F)(F)F.O=C(c1ncccn1)N1C[C@H]2CCC[C@@]2(COCc2cccnc2)C1	< 4.21	
CC(C)N1Cc2c(C(=O)N3CCOCC3)nn(C)c2C1.O=C(O)C(F)(F)F.O=C(O)C(F)(F)F	< 4.21	
O=C(O)C(F)(F)F.O=C(O)C(F)(F)F.O=C(O)C(F)(F)F.c1ccc(CO[C@@H]2CO[C@@]3(CCN(Cc4ccccn4)C3)C2)nc1	< 4.21	
FC1(F)CCN(Cc2ccccn2)CC12CCN(c1cccnc1)C2.O=C(O)C(F)(F)F.O=C(O)C(F)(F)F.O=C(O)C(F)(F)F (stereo not drawn)		IC50 [8]: > 50.1 µM; pIC50 [2]: < 4
